Assay results from US5853699A, “Use of tetra azacycle complexes as x-ray diagnostic agents for the liver and gallbladder” (priority 1995, dated 1998).
Where “and” joins values, the source holds several entries; their conditions need not be identical. Equal values may be shown once. Read-outs that look alike come from different tables or passages of the source. One block for each molecule: values may come before it.

What was measured:
[1] = density values of samples measured in a water phantom in a computer tomograph (137 kV, 100 mA); format: physicochemical
Experimental: 3,6,9-Triaza-3,6,9-tris-(carboxymethyl)-4-(4-ethoxybenzyl)-undecanedioic acid
Disodium salt was complexed with different X-ray-absorbing metal ions and then in the case of differing concentration, the density values of the samples were measured in a water phantom since it approximately corresponded in dimensions to those of a human abdomen.

liver [2] = conditions: cited from earlier work; for concentration in the liver (fold), at 50 μg of iodine/ml: 50 μg of iodine/ml of plasma; for concentration in the liver versus plasma, at 500 μg of iodine/ml: 500 μg of iodine/ml of plasma
liver metastases = experiment: liver CT of human patients with known liver metastases (Example 19); format: in vivo
Experimental: Gd-EOB-DTPA ([…]) was administered intravenously in an intravenous drip in the arm vein. The infusion time was 20 minutes for the dosages of 0.2 and 0.35 mmol/kg and 30 minutes for the maximum dose of 0.5 mmol/kg. […] Exclusion criteria for the patients were: […] The entire liver was measured within 20-30 seconds of a pause in breathing. The table feed rate was 8 mm/sec, the collimation 8 mm. Using a basis of pre-contrast and post-contrast images, two independent observers evaluated the number and size of the metastases qualitatively (excellent, good, moderate, minimal, no improvement) and quantitatively (measurement of the Houndsfield units).

[3] = compatibility (overall condition, vital parameters, laboratory analysis of serum and urine) in patients (Example 19); format: in vivo, human
Experimental: Fifteen human patients with known liver metastases were examined in the liver-CT 10 minutes, 60 minutes and (N=5) 120 minutes after intravenous infusion of 0.2, 0.35 or 0.5 mmol/kg of Gd-EOB-DTPA (see Example 16).
Gd-EOB-DTPA ([…]) was administered intravenously in an intravenous drip in the arm vein. The infusion time was 20 minutes for the dosages of 0.2 and 0.35 mmol/kg and 30 minutes for the maximum dose of 0.5 mmol/kg.
The compatibility of Gd-EOB-DTPA was determined by determining the overall condition, the recording of vital parameters and a laboratory analysis of serum and urine parameters.

healthy liver parenchyma = experiment: density enhancement of the healthy liver parenchyma in CT after infusion, patients with liver metastases (Example 16); format: in vivo, human; conditions: 0.35 mmol/kg, 0.25 molar solution, individual patients 1-5 (one line per patient), disodium salt
Experimental: Density enhancement of the healthy liver parenchyma 10 and 60 minutes after infusion of a 0.25 molar solution of the gadolinium(III) complex of the 3,6,9-triaza-3,6,9-tris(carboxymethyl)-4-(4-ethoxybenzyl)-undecanedioic acid disodium salt (Gd-EOB-DTPA, described in Example 8c of EP 0405704) in the case of 5 human patients with liver metastases in a dose of 0.35 mmol/kg in Houndsfield units (HU). This dose corresponds to about 16 g of the complex per 70 kg of patient.

liver [4] = conditions: human, dose corresponding to 360 mg of iodine/kg; cited from earlier work
liver [5] = conditions: mouse; cited from earlier work
liver [6] = conditions: dog; cited from earlier work
liver [7] = conditions: monkey; cited from earlier work
liver [8] = conditions: human, maximum compatible dose corresponding to about 7 g of iodine/70 kg; cited from earlier work
[9] = humans; cited from earlier work
mice = experiment: acute toxicity (LD50) after one-time intravenous administration to mice; format: in vivo, mouse (NMRI (SPF)); conditions: mice (NMRI), 2 ml/minutes, deaths up to 7 days
Experimental: Study of acute toxicity (LD50) after one-time intravenous administration to mice
The contrast medium to be tested was administered to the mice in individual restraining cages (strain: NMRI (SPF); cultivator: Schering; average weight: 20 g; same sex distribution) into one of the caudal veins at a rate of 2 ml/minutes and at different dosage levels. The number of animals that died up to a fixed time was determined (3 hours, 24 hours, 3 days and 7 days).

[10] = 0.2, 0.35 or 0.5 mmol/kg i.v. infusion

Compound: CCOc1ccc(CC(CN(CCN(CC(=O)[O-])CC(=O)[O-])CC(=O)[O-])N(CC(=O)[O-])CC(=O)[O-])cc1.[Na+].[Na+].[Yb+3] (stereo not drawn) [Yb, Ytterbium complex of the disodium salt of 3,6,9-triaza-3,6,9-tris-(carboxymethyl)-4-(4-ethoxybenzyl)-undecanedioic acid]
density (HU ± SD), 50 mmol/L [1]: 252 HU
density (HU ± SD), 500 mmol/L [1]: 1980 HU

Compound: CCOc1ccc(CC(CN(CCN(CC(=O)[O-])CC(=O)[O-])CC(=O)[O-])N(CC(=O)[O-])CC(=O)[O-])cc1.[Er+3].[Na+].[Na+] (stereo not drawn) [Er]
density (HU ± SD), 50 mmol/L [1]: 254 HU
density (HU ± SD), 500 mmol/L [1]: 1955 HU

Compound: CCOc1ccc(CC(CN(CCN(CC(=O)[O-])CC(=O)[O-])CC(=O)[O-])N(CC(=O)[O-])CC(=O)[O-])cc1.[Ho+3].[Na+].[Na+] (stereo not drawn) [Ho]
density (HU ± SD), 50 mmol/L [1]: 221 HU
density (HU ± SD), 500 mmol/L [1]: 1890 HU

Compound: O=C(COCC(=O)Nc1c(I)cc(I)c(C(=O)O)c1I)Nc1c(I)cc(I)c(C(=O)O)c1I [ioglycamate]
concentration in the liver (fold), at 5 μg of iodine per ml of plasma (liver [2]): 5 -fold
concentration in the liver (fold), at 50 μg of iodine/ml (liver [2]): ~2 -fold
concentration in the liver versus plasma, at 500 μg of iodine/ml (liver [2]): considerably lower than in the plasma

Compound: CNC(=O)c1c(I)c(NC(=O)COCC(=O)N(C)c2c(I)cc(I)c(C(=O)O)c2I)c(I)c(C(=O)O)c1I [SH L 433]
enhancement of the liver (liver [4]): < 10 HU
enhancement of the liver (liver [5]): > 40 HU
enhancement of the liver (liver [6]): > 40 HU
enhancement of the liver (liver [7]): > 40 HU

Compound: O=C(COCCOCCOCC(=O)Nc1c(I)cc(I)c(C(=O)O)c1I)Nc1c(I)cc(I)c(C(=O)O)c1I [iotroxinate]
enhancement in the liver (liver [8]): 15 HU
excreted via the bile ducts [9]: about 90%
concentration in the liver (fold), at 5 μg of iodine per ml of plasma (liver [2]): 5 -fold
concentration in the liver (fold), at 50 μg of iodine/ml (liver [2]): ~2 -fold
concentration in the liver versus plasma, at 500 μg of iodine/ml (liver [2]): considerably lower than in the plasma

Compound: CCOc1ccc(CC(CN(CC(=O)[O-])CC(Cc2ccc(OCC)cc2)N(CC(=O)[O-])CC(=O)[O-])N(CC(=O)[O-])CC(=O)[O-])cc1.[Na+].[Na+].[Yb+3] (stereo not drawn) [Example 4e, Ytterbium complex of the disodium salt of 3,6,9-triaza-3,6,9-tris-(carboxymethyl)-4,8-bis-(4-ethoxybenzyl)-undecanedioic acid]
LD50 (mice): approximately 15 mmol/kg of body weight

Second part, led by results:

density (HU ± SD), 50 mmol/L [1]: 228 HU
density (HU ± SD), 500 mmol/L [1]: 1760 HU
Compound: CCOc1ccc(CC(CN(CCN(CC(=O)[O-])CC(=O)[O-])CC(=O)[O-])N(CC(=O)[O-])CC(=O)[O-])cc1.[Na+].[Na+].[Tb+3] (stereo not drawn) [Tb]

density (HU ± SD), 50 mmol/L [1]: 218 HU
density (HU ± SD), 500 mmol/L [1]: 1680 HU
general compatibility ([3]; 0.2, 0.35 or 0.5 mmol/kg i.v. infusion, 15 patients): good
burning sensation at the infusion site or retrograde therefrom (cases) ([3]; persisted for a few seconds or minutes): two
slight increases of aspartate transferase and alaninamino transferase (patients) ([3]; probably caused by the liver metastases): three
evaluation of the laboratory parameters ([3]; serum and urine parameters): no precise trend
Compound: CCOc1ccc(CC(CN(CCN(CC(=O)[O-])CC(=O)[O-])CC(=O)[O-])N(CC(=O)[O-])CC(=O)[O-])cc1.[Gd+3].[Na+].[Na+] (stereo not drawn) [Gd-EOB-DTPA, gadolinium(III) complex of the 3,6,9-triaza-3,6,9-tris(carboxymethyl)-4-(4-ethoxybenzyl)-undecanedioic acid disodium salt]
visualization of the metastases, all dose groups (liver metastases; 0.2, 0.35 and 0.5 mmol/kg): improved
CT density of the healthy liver (liver metastases; [10]): dose-dependent increase
CT density of the metastases (liver metastases; [10]): unchanged
visualization of the metastases, two upper dose groups (liver metastases; 0.35 and 0.5 mmol/kg): excellent
visualization of the gallbladder and the bile ducts (liver metastases; after i.v. infusion): possible
additional metastases discovered, on the average (liver metastases; maximum dose (0.5 mmol/kg)): two
average size of the smallest metastases found (liver metastases; maximum dose, decreased from 20.3 mm): 16.6 mm
diameter of additional lesion detected (liver metastases; one patient, left lobe of the liver, previously not found): 7 mm
summary as liver or gallbladder contrast medium for CT (liver metastases; summary statement): well-tolerated and effective
other side effects ([3]; 0.2, 0.35 or 0.5 mmol/kg): nausea and a sensation of pressure in the epigastric region
mild or moderate side effects observed (number) ([3]; 0.2, 0.35 or 0.5 mmol/kg, 15 patients): four
Density enhancement of the healthy liver parenchyma, 10 minutes p. inf. (healthy liver parenchyma; 10 minutes after infusion): 19 HU and 12 HU and 10 HU and 18 HU and 15 HU
Density enhancement of the healthy liver parenchyma, 60 minutes p. inf. (healthy liver parenchyma; 60 minutes after infusion): 26 HU and 25 HU and 17 HU and 32 HU

density (HU ± SD), 50 mmol/L [1]: 226 HU
density (HU ± SD), 500 mmol/L [1]: 1840 HU
Compound: CCOc1ccc(CC(CN(CCN(CC(=O)[O-])CC(=O)[O-])CC(=O)[O-])N(CC(=O)[O-])CC(=O)[O-])cc1.[Dy+3].[Na+].[Na+] (stereo not drawn) [Dy]
